In patent publication US10519211B2, “Compounds as peptidic GLP1/glucagon/GIP receptor agonists” (SANOFI, priority 2016, dated 2019):
Numbered stars: 1 amine (or outer) side, 2 acyl side, 3 side chain; on linkers, the order of the positions; unused ones are H or OH. Square brackets hold non-standard residues; d marks the D form. Side chains are listed from the residue outwards. Peptide text beside a SMILES is read from it. * marks the point of attachment. γGlu = O=C(O)[C@H](CCC(=O)[*:2])N[*:1]; Palmitoyl = CCCCCCCCCCCCCCCC(=O)*; AEEA = NCCOCCOCC(=O)O; Aib = CC(C)(N)C(=O)O

What was measured:
[1] = biological target: T1, human glucagon receptor (hGlucagon R) (Homo sapiens, UniProt P47871); assay: cAMP response (HTRF) of HEK-293 cells stably expressing human glucagon receptor; type: cell-based; conditions: Table 8; cAMP formation
T1 construct: expressed in transfected cells; host or cells: HEK-293
T1 sequence (P47871 26-477): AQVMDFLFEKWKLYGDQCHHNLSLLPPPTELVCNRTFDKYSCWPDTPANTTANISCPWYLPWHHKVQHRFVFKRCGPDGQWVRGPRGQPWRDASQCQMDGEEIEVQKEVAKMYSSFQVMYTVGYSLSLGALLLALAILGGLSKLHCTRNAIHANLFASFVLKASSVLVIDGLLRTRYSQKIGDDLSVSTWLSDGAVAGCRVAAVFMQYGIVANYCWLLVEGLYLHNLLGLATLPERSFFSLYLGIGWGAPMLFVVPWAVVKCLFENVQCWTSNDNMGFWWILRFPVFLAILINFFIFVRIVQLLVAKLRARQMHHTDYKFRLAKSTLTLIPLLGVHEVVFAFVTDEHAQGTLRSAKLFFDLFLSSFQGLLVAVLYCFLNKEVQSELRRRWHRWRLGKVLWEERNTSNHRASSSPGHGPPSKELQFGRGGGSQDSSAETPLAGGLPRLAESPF
Experimental: cAMP content of cells was determined using a kit from Cisbio Corp. (cat. no. 62AM4PEJ) based on HTRF (Homogenous Time Resolved Fluorescence). For preparation, cells were split into T175 culture flasks and grown overnight to near confluency in medium (DMEM/10% FBS). Medium was then removed and cells washed with PBS lacking calcium and magnesium, followed by proteinase treatment with accutase (Sigma-Aldrich cat. no. A6964). Detached cells were washed and resuspended in assay buffer (1×HBSS; 20 mM HEPES, 0.1% BSA, 2 mM IBMX) and cellular density determined. They were then diluted to 400000 cells/ml and 25 μl-aliquots dispensed into the wells of 96-well plates. For measurement, 25 μl of test compound in assay buffer was added to the wells, followed by incubation for 30 minutes at room temperature.
Potencies of peptidic compounds at the GLP-1, glucagon and GIP receptors were determined by exposing cells expressing human glucagon receptor (hGlucagon R), human GIP receptor (hGIP-R) or human GLP-1 receptor (hGLP-1 R) to the listed compounds at increasing concentrations and measuring the formed cAMP as described in Methods.

[2] = Thioflavin T (ThT) assay for physical stability (fibrillation); type: physicochemical; conditions: 3 mg/ml, 100 mM acetate pH 4.5 with m-cresol, shaking at 37° C.
How it was run: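 Peptide at 3 mg/ml with 100 μM ThT in 100 mM acetate pH 4.5 with m-cresol, stressed at 37° C by cycles of 10 s shaking at 960 rpm and 50 s rest. Fluorescence read every 20 minutes, eight replicates; lag time in hours.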

[3] = Chemical stability assessment (UPLC-UV, relative purity loss); type: physicochemical; conditions: 1 mg/ml, 25 mM acetate buffer pH 4.5 with m-cresol (buffer system A)
How it was run: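 Peptide at 1 mg/mL (purity-corrected) in 25 mM acetate pH 4.5 with methionine, m-cresol and glycerol, sterile-filtered, stored 28 days at 40° C. Purity measured by UPLC-UV as peptide peak area fraction at start and after storage; value is relative percent purity loss.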

[4] = Dynamic light scattering (DLS), hydrodynamic radius as surrogate for interaction parameter kD; type: physicochemical
How it was run: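 Rh and diffusion constant measured in triplicate at 1 and 5 mg/ml peptide in 25 mM acetate pH4.5 with methionine, m-cresol and glycerol, at 25°C, 830 nm, 158°. Rh5<Rh1 or D5>D1 taken as kD>0, indicating repulsive interactions.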

[5] = Solubility assessment (UPLC-UV); type: physicochemical; conditions: acetate buffer pH 4.5, 2.7 mg/ml m-cresol (buffer system A), target 10 mg/ml
How it was run: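 Peptides at 10 mg/mL (purity-corrected, by UPLC/MS) in 100 mM acetate buffer pH 4.5 with 2.7 mg/ml m-Cresol, gently agitated 1 hour, then centrifuged 15 min at 2500 RCF. Supernatant, diluted 1:10, quantified by UPLC-UV peak area against a reference peptide standard curve, extinction-coefficient corrected.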

- EC50 [1]: 22 pM
- Lag time before increase [2]: >45 h
- Chemical stability [relative purity loss 28 days 40° C.] (%) at pH 4.5 [3]: 6.4%
- Delta Rh [nm] = Rh5 − Rh1 ([4]; DLS buffer system A pH 4.5): −0.5 nm
- Rh1 [nm] c= 1 mg/ml ([4]; hydrodynamic radius, 1 mg/ml, DLS buffer system A pH 4.5, DLS method C, 25° C.): 2.9 nm
- Rh5 [nm] c = 5 mg/ml ([4]; hydrodynamic radius, 5 mg/ml, DLS buffer system A pH 4.5, DLS method C, 25° C.): 2.4 nm
- solubility at 1 h [5]: > 9200 µg/mL
SMILES: CCCCCCCCCCCCCCCC(=O)NCCOCCOCC(=O)N[C@@H](CCC(=O)N[C@@H](CCC(=O)NCCCC[C@H](NC(=O)[C@H](CC(C)C)NC(=O)[C@H](CCCCN)NC(=O)[C@H](CO)NC(=O)[C@H](CC(C)C)NC(=O)[C@H](CC(=O)O)NC(=O)[C@H](CO)NC(=O)[C@@H](NC(=O)[C@H](Cc1ccccc1)NC(=O)[C@@H](NC(=O)CNC(=O)[C@H](CCC(N)=O)NC(=O)C(C)(C)NC(=O)[C@@H](N)Cc1c[nH]cn1)[C@@H](C)O)[C@@H](C)O)C(=O)N[C@@H](CCC(=O)O)C(=O)N[C@@H](CCCCN)C(=O)N[C@@H](CCC(N)=O)C(=O)N[C@@H](CCCNC(=N)N)C(=O)N[C@@H](CCC(N)=O)C(=O)NC(C)(C)C(=O)N[C@@H](CCC(=O)O)C(=O)N[C@@H](Cc1ccccc1)C(=O)N[C@H](C(=O)N[C@@H](CCC(=O)O)C(=O)N[C@@H](Cc1c[nH]c2ccccc12)C(=O)N[C@@H](CC(C)C)C(=O)N[C@@H](CCCCN)C(=O)N[C@@H](C)C(=O)N[C@H](C)C(=O)NCC(=O)N[C@@H](Cc1c[nH]cn1)C(=O)N1CCC[C@H]1C(=O)N[C@@H](CO)C(=O)NC(C)(C)C(=O)N[C@@H](CCCCN)C(=O)N1CCC[C@H]1C(=O)N1CCC[C@H]1C(=O)N1CCC[C@H]1C(=O)N[C@@H](CCCCN)C(N)=O)[C@@H](C)CC)C(=O)O)C(=O)O [SEQ ID NO: 17, H-Aib-Q-G-T-F-T-S-D-L-S-K-L-K[gGlu-gGlu-AEEA-Palm]-E-K-Q-R-Q-Aib-E-F-I-E-W-L-K-A-dAla-G-H-P-S-Aib-K-P-P-P-K-NH2] (H-H[Aib]QGTFTSDLSKLK([γGlu-γGlu-AEEA-Palmitoyl])EKQRQ[Aib]EFIEWLKA[dA]GHPS[Aib]KPPPK-NH2)
